Assay results from PubChem BioAssay (NCI).
Values joined by “and” are separate entries in the source; they are usually repeats but may differ in a detail not shown here. Equal entries are not always repeated.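 Method: 48-hour compound exposure of cells in 96-well plates, five concentrations, linear interpolation of endpoints. GI50 is the concentration that inhibits growth by half. At the TGI there is no net growth.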

How the values were obtained:
Assay in all cases: NCI tumour cell line growth inhibition, 48 h
[1] = test system: HCC-2998 colon
[2] = test system: MCF7 breast
[3] = test system: T-47D breast
[4] = test system: 786-0 renal
[5] = test system: SW-620 colon
[6] = test system: NCI/ADR-RES ovarian
[7] = test system: DU-145 prostate
[8] = test system: SF-268 CNS
[9] = test system: CCRF-CEM leukemia
[10] = test system: OVCAR-4 ovarian
[11] = test system: RXF 393 renal
[12] = test system: SK-OV-3 ovarian
[13] = test system: NCI-H460 lung
[14] = test system: A549 NSCLC
[15] = test system: A498 renal
[16] = test system: IGROV1 ovarian
[17] = test system: CAKI-1 renal
[18] = test system: EKVX NSCLC
[19] = test system: SK-MEL-2 melanoma
[20] = test system: SF-539 CNS
[21] = test system: LOX IMVI melanoma
[22] = test system: OVCAR-8 ovarian
[23] = test system: NCI-H226 lung
[24] = test system: SR leukemia
[25] = test system: K-562 leukemia
[26] = test system: MDA-MB-231 breast
[27] = test system: U251 CNS
[28] = test system: HCT-15 colon
[29] = test system: SF-295 CNS
[30] = test system: HCT-116 colon
[31] = test system: SNB-19 CNS
[32] = test system: OVCAR-5 ovarian
[33] = test system: OVCAR-3 ovarian
[34] = test system: UACC-257 melanoma
[35] = test system: PC-3 prostate
[36] = test system: M14 melanoma
[37] = test system: COLO 205 colon
[38] = test system: UACC-62 melanoma
[39] = test system: MALME-3M melanoma
[40] = test system: SN12C renal
[41] = test system: HL-60(TB) leukemia
[42] = test system: MDA-MB-435
[43] = test system: TK-10 renal
[44] = test system: HOP-62 NSCLC
[45] = test system: ACHN renal
[46] = test system: MOLT-4 leukemia
[47] = test system: HT29 colon
[48] = test system: SK-MEL-28 melanoma
[49] = test system: NCI-H522 lung
[50] = test system: NCI-H23 lung
[51] = test system: KM12 colon
[52] = test system: SK-MEL-5 melanoma
[53] = test system: MDA-N
[54] = test system: UO-31 renal
[55] = test system: HOP-92 NSCLC
[56] = test system: SNB-75 CNS
[57] = test system: HS 578T breast
[58] = test system: RPMI-8226 leukemia

## CCc1c(C)c(C#N)c(=S)n(C2OC(COC(C)=O)C(OC(C)=O)C(OC(C)=O)C2OC(C)=O)c1C (stereo unspecified)
[1]
  TGI: > 100 µM
[2]
  TGI: > 100 µM
[3]
  TGI: > 100 µM
[4]
  TGI: > 100 µM and 41.5 µM
[5]
  TGI: > 100 µM
[6]
  TGI: > 100 µM
[7]
  TGI: > 100 µM
[8]
  TGI: > 100 µM
[9]
  TGI: > 100 µM
[10]
  TGI: > 100 µM
[11]
  TGI: > 100 µM and 29.1 µM
[12]
  GI50: 63.4 µM and 20.8 µM
  TGI: > 100 µM and 84.6 µM
[13]
  TGI: > 100 µM
[14]
  TGI: > 100 µM
[15]
  GI50: > 100 µM and 30.2 µM
  TGI: > 100 µM and 92.4 µM
[16]
  TGI: > 100 µM
[17]
  TGI: > 100 µM
[18]
  TGI: > 100 µM
[19]
  TGI: 32.9 µM
[20]
  GI50: > 100 µM and 31.4 µM
  TGI: > 100 µM
[21]
  TGI: > 100 µM
[22]
  TGI: > 100 µM
[23]
  GI50: > 100 µM and 38.2 µM
  TGI: > 100 µM
[24]
  TGI: > 100 µM
[25]
  TGI: > 100 µM
[26]
  GI50: > 100 µM and 13 µM
  TGI: > 100 µM and 73.9 µM
[27]
  GI50: > 100 µM and 26.9 µM
  TGI: > 100 µM
[28]
  TGI: > 100 µM
[29]
  GI50: > 100 µM and 23 µM
  TGI: > 100 µM
[30]
  GI50: > 100 µM and 21.7 µM
  TGI: > 100 µM and 45.5 µM
[31]
  GI50: > 100 µM and 21.5 µM
  TGI: > 100 µM and 93 µM
[32]
  GI50: > 100 µM and 45.9 µM
  TGI: > 100 µM
[33]
  TGI: > 100 µM
[34]
  TGI: > 100 µM
[35]
  TGI: > 100 µM and 27.9 µM
[36]
  TGI: > 100 µM
[37]
  TGI: > 100 µM
[38]
  GI50: > 100 µM and 47.6 µM
  TGI: > 100 µM
[39]
  TGI: > 100 µM
[40]
  TGI: > 100 µM
[41]
  TGI: > 100 µM
[42]
  TGI: > 100 µM
[43]
  GI50: 92.8 µM and 26.3 µM
  TGI: > 100 µM and 69.4 µM
[44]
  GI50: 45.4 µM and 5.33 µM
  TGI: > 100 µM and 21.8 µM
[45]
  GI50: > 100 µM and 18.9 µM
  TGI: > 100 µM
[46]
  TGI: > 100 µM
[47]
  TGI: > 100 µM
[48]
  TGI: > 100 µM
[49]
  TGI: > 100 µM
[50]
  TGI: > 100 µM
[51]
  TGI: > 100 µM
[52]
  TGI: > 100 µM
[53]
  TGI: > 100 µM
[54]
  GI50: 11 µM and 3.57 µM
  TGI: 92.2 µM and 14.5 µM

## N#C/C(N)=C(\C#N)N=CN
[1]
  TGI: > 100 µM
[2]
  TGI: > 100 µM
[3]
  TGI: > 100 µM
[4]
  TGI: > 100 µM
[5]
  TGI: > 100 µM
[6]
  TGI: > 100 µM
[7]
  TGI: > 100 µM
[8]
  TGI: > 100 µM
[9]
  TGI: > 100 µM
[10]
  TGI: > 100 µM
[55]
  TGI: > 100 µM
[12]
  TGI: > 100 µM
[13]
  TGI: > 100 µM
[14]
  TGI: > 100 µM
[16]
  TGI: > 100 µM
[18]
  TGI: > 100 µM
[19]
  TGI: > 100 µM
[20]
  TGI: > 100 µM
[21]
  TGI: > 100 µM
[22]
  TGI: > 100 µM
[56]
  TGI: > 100 µM
[24]
  TGI: > 100 µM
[25]
  TGI: > 100 µM
[26]
  TGI: > 100 µM
[27]
  TGI: > 100 µM
[28]
  TGI: > 100 µM
[29]
  TGI: > 100 µM
[30]
  TGI: > 100 µM
[32]
  TGI: > 100 µM
[33]
  TGI: > 100 µM
[34]
  TGI: > 100 µM
[57]
  TGI: > 100 µM
[35]
  TGI: > 100 µM
[36]
  TGI: > 100 µM
[37]
  TGI: > 100 µM
[38]
  TGI: > 100 µM
[39]
  TGI: > 100 µM
[58]
  TGI: > 100 µM
[40]
  TGI: > 100 µM
[41]
  TGI: > 100 µM
[42]
  TGI: > 100 µM
[43]
  TGI: > 100 µM
[44]
  TGI: > 100 µM
[45]
  TGI: > 100 µM
[46]
  TGI: > 100 µM
[47]
  TGI: > 100 µM
[48]
  TGI: > 100 µM
[50]
  TGI: > 100 µM
[51]
  TGI: > 100 µM
[52]
  TGI: > 100 µM
[53]
  TGI: > 100 µM
[54]
  TGI: > 100 µM

## CCCCCCCCCCN(CCCCCCCCCC)C(=O)COc1c2cc(C(C)(C)C)cc1Cc1cc(C(C)(C)C)cc(c1OCC(=O)N(CCCCCCCCCC)CCCCCCCCCC)Cc1cc(C(C)(C)C)cc(c1OCC(=O)N(CCCCCCCCCC)CCCCCCCCCC)Cc1cc(C(C)(C)C)cc(c1OCC(=O)N(CCCCCCCCCC)CCCCCCCCCC)C2
[1]
  TGI: 22.3 µM
[2]
  TGI: 6.95 µM
[3]
  TGI: 32.3 µM
[4]
  TGI: 23.3 µM
[5]
  TGI: 14.2 µM
[6]
  TGI: 29.2 µM
[7]
  TGI: 31.8 µM
[8]
  TGI: 29.9 µM
[9]
  TGI: 14.1 µM
[10]
  TGI: 22.4 µM
[11]
  TGI: 22.3 µM
[55]
  TGI: 11.4 µM
[12]
  TGI: 27.6 µM
[13]
  TGI: 26.2 µM
[14]
  TGI: 30.4 µM
[15]
  TGI: 29.1 µM
[16]
  TGI: 24.8 µM
[18]
  TGI: 25.2 µM
[19]
  TGI: 20.4 µM
[20]
  TGI: 13.7 µM
[21]
  TGI: 23.7 µM
[22]
  TGI: 16.6 µM
[56]
  TGI: 32.5 µM
[23]
  TGI: 36.3 µM
[24]
  TGI: 6.06 µM
[25]
  TGI: 4.87 µM
[26]
  TGI: 33.2 µM
[27]
  TGI: 23.2 µM
[28]
  TGI: 21.7 µM
[29]
  TGI: 21.7 µM
[30]
  TGI: 5.6 µM
[31]
  TGI: 22.1 µM
[32]
  TGI: 26.1 µM
[33]
  TGI: 29.1 µM
[34]
  TGI: 29.6 µM
[35]
  TGI: 21.8 µM
[36]
  TGI: 8.01 µM
[37]
  TGI: 29.2 µM
[38]
  TGI: 25.3 µM
[39]
  TGI: 28.7 µM
[40]
  TGI: 26.2 µM
[41]
  TGI: 30.9 µM
[42]
  TGI: 25.6 µM
[43]
  TGI: 33.5 µM
[44]
  TGI: 31.4 µM
[45]
  TGI: 28.1 µM
[46]
  TGI: 6.34 µM
[47]
  TGI: 12.3 µM
[48]
  TGI: 24.1 µM
[49]
  TGI: 10.2 µM
[50]
  TGI: 9.16 µM
[51]
  TGI: 24.5 µM
[52]
  TGI: 26.4 µM
[53]
  TGI: 24.9 µM
[54]
  TGI: 37.1 µM
